Data from the supplement of paper PMC10307832.

Key:
Assay in all cases: relative viability (nuclei count vs DMSO), 5 days (fraction); higher = more cells survive
[1] = compound: C1=CC2=C(C=C(C(=C2N=C1)O)N=NC3=CC4=C(C=C3)C=C(C=C4)S(=O)(=O)O)S(=O)(=O)O + CC(C)C[C@H](NC(=O)[C@H](Cc1ccccc1)NC(=O)c1cnccn1)B(O)O [Bortezomib] (partner 0.002 µM)
Summary of the method: (§1)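 Five library-drug doses in √10 steps were combined with a fixed anchor-drug dose, or a single drug was given alone, by pin tool to lung cancer cell lines in 1536-well plates the day after seeding. Nuclei were stained and counted after 5 days. Relative viability is the nuclei count in treated wells over that in vehicle wells, taken as the median of duplicate plates.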

[2] = compound: C1=CC2=C(C=C(C(=C2N=C1)O)N=NC3=CC4=C(C=C3)C=C(C=C4)S(=O)(=O)O)S(=O)(=O)O + O=C(CCCCCCC(=O)Nc1ccccc1)NO [Vorinostat] (partner 1 µM)
Summary of the method: as §1

AT-7519 + Phenformin = compound: O=C(NC1CCNCC1)c1n[nH]cc1NC(=O)c1c(Cl)cccc1Cl [AT-7519] + N=C(N)NC(=N)NCCc1ccccc1 [Phenformin] (partner 250 µM)
Summary of the method: as §1

AT-7519 + AZD7762 = compound: O=C(NC1CCNCC1)c1n[nH]cc1NC(=O)c1c(Cl)cccc1Cl [AT-7519] + NC(=O)Nc1cc(-c2cccc(F)c2)sc1C(=O)N[C@H]1CCCNC1 [AZD7762] (partner 0.2 µM)
Summary of the method: as §1

Row | Cell Line | relative viability ([1]; first compound 0.08 µM) | relative viability ([1]; first compound 0.253 µM) | relative viability ([1]; first compound 0.8 µM) | relative viability ([1]; first compound 2.53 µM) | relative viability ([1]; first compound 8 µM) | relative viability ([2]; first compound 0.08 µM) | relative viability ([2]; first compound 0.253 µM) | relative viability ([2]; first compound 0.8 µM) | relative viability ([2]; first compound 2.53 µM) | relative viability ([2]; first compound 8 µM) | relative viability (AT-7519 + Phenformin; first compound 0.01 µM) | relative viability (AT-7519 + Phenformin; first compound 0.03162 µM) | relative viability (AT-7519 + Phenformin; first compound 0.3162 µM) | relative viability (AT-7519 + Phenformin; first compound 1 µM) | relative viability (AT-7519 + AZD7762; first compound 0.01 µM) | relative viability (AT-7519 + AZD7762; first compound 0.03162 µM) | relative viability (AT-7519 + AZD7762; first compound 0.3162 µM) | relative viability (AT-7519 + AZD7762; first compound 1 µM)
1 | RERF-LC-KJ | 1.39 | 1.1 | 1.08 | 1.2 | 1.14 | 0.809 | 0.811 | 0.662 | 0.695 | 0.603 | 0.456 | 0.418 | 0.388 | 0.217 | 0.87 | 0.698 | 1.18 | 1.03
2 | NCI-H23 | 1.06 | 0.82 | 1.08 | 1.06 | 0.897 | 0.661 | 0.627 | 0.599 | 0.561 | 0.633 | 0.632 | 0.794 | 0.779 | 0.52 | 0.258 | 0.262 | 0.242 | 0.309
3 | HCC-366 | 1.03 | 1.03 | 1.02 | 1.13 | 0.985 | 0.442 | 0.463 | 0.392 | 0.338 | 0.328 | 0.624 | 0.616 | 0.613 | 0.509 | 0.326 | 0.228 | 0.293 | 0.371
4 | EMC-BAC-2 | 1.1 | 1.06 | 1.06 | 1.14 | 1 | 0.377 | 0.458 | 0.467 | 0.441 | 0.45 | 0.52 | 0.524 | 0.495 | 0.585 | 1.09 | 1.1 | 1.03 | 1.19
5 | NCI-H2405 | 1.04 | 0.952 | 0.979 | 0.935 | 0.4 | 1.01 | 0.937 | 0.942 | 1.02 | 0.932 | 0.375 | 0.39 | 0.35 | 0.32 | 0.732 | 0.724 | 0.683 | 0.527
6 | EPLC-272H | 0.895 | 0.917 | 0.935 | 0.924 | 0.902 | 0.453 | 0.358 | 0.306 | 0.876 | 0.491 | 0.272 | 0.295 | 0.307 | 0.198 | 0.321 | 0.21 | 0.302 | 0.336
7 | NCI-H1915 | 1.02 | 0.957 | 0.92 | 0.892 | 0.935 | 0.539 | 0.547 | 0.518 | 0.513 | 0.527 | 0.365 | 0.384 | 0.345 | 0.376 | 0.704 | 0.689 | 0.773 | 0.782
8 | NCI-H596 | 1.43 | 1.16 | 0.974 | 1.02 | 0.769 | 0.544 | 0.645 | 0.545 | 0.613 | 0.649 | 0.732 | 0.653 | 0.642 | 0.714 | 1.22 | 1.06 | 0.982 | 0.938
